The values below come from patent publication US20090018121A1, “PREVENTIVE AND/OR THERAPEUTIC AGENT FOR RHEUMATOID ARTHRITIS” (Kowa Co., Ltd., priority 2005, published 2009).

The assay has as its system rat collagen-induced arthritis model. The assay is described as follows: Edema suppressing effect in both hindlimbs in rat collagen-induced arthritis model (Edema Index). Type of assay: in vivo, rat (female Lewis, LEW/Crj). Also noted: Edema Index: unit not given here. Particulars: sole administration; for Relative index: Edema Index relative to control group; for Relative index / Decrease rate (%) / Edema Index: oral; for Decrease rate (%): of Edema Index vs control group; for Edema Index: mean ± SE. How it is done:
Female Lewis rats (LEW/Crj) (obtained from Charles River Laboratories Japan, Inc.) were used as test animals.
This Pre value was used as an index to divide the rats into groups by one-parameter-based block randomization, so that the values in the respective groups averaged out.
The collagen emulsion for sensitization used to induce arthritis in rats was prepared by homogenizing 0.3% Type II collagen liquid (manufactured by Collagen Research Center), Adjuvant Peptide (manufactured by Peptide Institute, Inc.) and Adjuvant Incomplete Freund (manufactured by DIFCO), using a Handy Micro Homogenizer (manufactured by Microtec Nition) under ice-cooling. The collagen emulsion thus prepared was intracutaneously administered at 10 sites in the back of each rat at a dose of 0.1 mL/site, to perform initial sensitization of the rat. Seven days after initial sensitization, 0.12 mL of the same collagen emulsion was intracutaneously administered to the tail head of each rat, to perform booster sensitization.
Drug administration was conducted from the day after the initial sensitization through 18 days thereafter. Drug A and Drugs B-1, B-2 and B-4 were all orally administered two times a day, in the morning (9:00 to 11:00 AM) and in the evening (15:30 to 17:30 PM). Drug B-3 was orally administered once a day, around noon (11:30 AM to 13:30 PM).
14 Days and 18 days after the initial sensitization, respectively, the hindlimbs volume was measured again for each rat, and the difference between each of the values and the Pre value was determined to calculate the edema volume for both hindlimbs. The sum of the edema volumes for both hindlimbs measured 14 days and 18 days after the initial sensitization was calculated as the Edema Index, and this was taken as an index for the effect of the drug.
The Edema Index is represented by an average value±standard error for 8 rats in each group. Also, the decrease rate is represented by the formula: ((X−Y)/X)×100 (wherein X: average value of Edema Index for the control group, Y: average value of Edema Index for each group).

The structures appear in SMILES notation.

As to `CSc1ccc(-c2nn(Cc3ccccc3)c(=O)cc2-c2ccc(Cl)cc2)cc1` [Drug A, 2-benzyl-5-(4-chlorophenyl)-6-[4-(methylthio)phenyl]-2H-pyridazin-3-one], where the note is “10 mg/kg, two times a day”, the Relative index turned out to be 0.81, the “Decrease rate (%)” value was found to be 19% and the “Edema Index” value was 2.93 ± 0.22.
`O=C(O)Cc1ccccc1Nc1c(Cl)cccc1Cl` [Drug B-1, diclofenac sodium]: under “1 mg/kg, two times a day”, the Relative index was found to be 0.33, the “Decrease rate (%)” value is listed as 67% and the “Edema Index” value is reported as 1.20 ± 0.26.
For the compound `Cc1cnc(NC(=O)C2=C(O)c3ccccc3S(=O)(=O)N2C)s1` [Drug B-3, meloxicam], for the setting “0.2 mg/kg, once a day”, the Relative index was 0.58, the “Decrease rate (%)” value is reported as 42% and the “Edema Index” value turned out to be 2.04 ± 0.10.
As for `Cc1ccc(-c2cc(C(F)(F)F)nn2-c2ccc(S(N)(=O)=O)cc2)cc1` [Drug B-4, celecoxib], the Relative index reads like this: (1 mg/kg, two times a day) 0.70; (3 mg/kg, two times a day) 0.61; (10 mg/kg, two times a day) 0.46. The “Decrease rate (%)” value (1 mg/kg, two times a day) amounted to 30%; the “Decrease rate (%)” value (3 mg/kg, two times a day) is 39%; the “Decrease rate (%)” value (10 mg/kg, two times a day) was determined as 54%. The “Edema Index” value was found to be 3.41 ± 0.16 (1 mg/kg, two times a day); 2.46 ± 0.22 (3 mg/kg, two times a day, through 18 days after initial sensitization, sum of edema volumes of both hindlimbs at days 14 and 18); 1.86 ± 0.19 (10 mg/kg, two times a day). The “Decrease rate of Edema Index vs control group (%)” value runs as follows: (3 mg/kg) 39%; (10 mg/kg) 54%.
